Measurements as given in ChEMBL document CHEMBL1201862, “PubChem BioAssay data set” (2004).
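Interpolation was linear, between the two tested concentrations surrounding the appropriate level; five concentrations were tested over 48 hours in 96-well plates. GI50 marks 50% less growth.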 Activity calls are given as the source filed them. Rule as the data show it: active = GI50 up to about 1.1 µM and inactive = higher.

What was measured:
Assay in all cases: NCI anticancer screen, dose series, 48 h
786-0 = test system: 786-0
A498 = test system: A498
ACHN = test system: ACHN
CAKI-1 = test system: CAKI-1
CCRF-CEM = test system: CCRF-CEM
COLO 205 = test system: COLO 205
DLD-1 = test system: DLD-1
DMS-273 = test system: DMS-273
HCC 2998 = test system: HCC 2998
HCT-15 = test system: HCT-15
HL-60 = test system: HL-60
HOP-18 = test system: HOP-18
HOP-92 = test system: HOP-92
HT-29 = test system: HT-29
IGROV-1 = test system: IGROV-1
K562 = test system: K562
KM-20L2 = test system: KM-20L2
LOX IMVI = test system: LOX IMVI
LXFL 529 = test system: LXFL 529
M14 = test system: M14
M19-MEL = test system: M19-MEL
MOLT-4 = test system: MOLT-4
Malme-3M = test system: Malme-3M
NCI-H23 = test system: NCI-H23
NCI-H460 = test system: NCI-H460
NCI-H522 = test system: NCI-H522
OVCAR-4 = test system: OVCAR-4
OVCAR-5 = test system: OVCAR-5
RPMI-8226 = test system: RPMI-8226
RXF 393 = test system: RXF 393
RXF 631 = test system: RXF 631
SF-268 = test system: SF-268
SF-539 = test system: SF-539
SK-MEL-28 = test system: SK-MEL-28
SK-MEL-2 = test system: SK-MEL-2
SK-OV-3 = test system: SK-OV-3
SN12C = test system: SN12C
SNB-19 = test system: SNB-19
SNB-75 = test system: SNB-75
U-251 = test system: U-251
UACC-257 = test system: UACC-257
UACC-62 = test system: UACC-62
UO-31 = test system: UO-31
XF498 = test system: XF498
A549 = test system: A549
DMS-114 = test system: DMS-114
EKVX = test system: EKVX
KM12 = test system: KM12
NCI-H226 = test system: NCI-H226
OVCAR-3 = test system: OVCAR-3
OVCAR-8 = test system: OVCAR-8
SF-295 = test system: SF-295
SK-MEL-5 = test system: SK-MEL-5
SNB-78 = test system: SNB-78
SR = test system: SR
SW-620 = test system: SW-620
TK-10 = test system: TK-10
HCT-116 = test system: HCT-116
HOP-62 = test system: HOP-62

## O=C(O)[C@H](NS(=O)(=O)c1ccc2ccccc2c1)c1ccccc1
786-0
  GI50: > 100 µM (inactive)
A498
  GI50: > 100 µM (inactive)
ACHN
  GI50: > 100 µM (inactive)
CAKI-1
  GI50: > 100 µM (inactive)
CCRF-CEM
  GI50: > 100 µM (inactive)
COLO 205
  GI50: > 100 µM (inactive)
DLD-1
  GI50: > 100 µM (inactive)
DMS-273
  GI50: > 100 µM (inactive)
HCC 2998
  GI50: > 100 µM (inactive)
HCT-15
  GI50: > 100 µM
HL-60
  GI50: > 100 µM (inactive)
HOP-18
  GI50: > 100 µM (inactive)
HOP-92
  GI50: 45.3 µM (inactive)
HT-29
  GI50: > 100 µM (inactive)
IGROV-1
  GI50: > 100 µM (inactive)
K562
  GI50: > 100 µM (inactive)
KM-20L2
  GI50: > 100 µM (inactive)
LOX IMVI
  GI50: > 100 µM (inactive)
LXFL 529
  GI50: > 100 µM (inactive)
M14
  GI50: > 100 µM (inactive)
M19-MEL
  GI50: > 100 µM (inactive)
MOLT-4
  GI50: > 100 µM (inactive)
Malme-3M
  GI50: > 100 µM (inactive)
NCI-H23
  GI50: > 100 µM (inactive)
NCI-H460
  GI50: > 100 µM (inactive)
NCI-H522
  GI50: > 100 µM (inactive)
OVCAR-4
  GI50: > 100 µM (inactive)
OVCAR-5
  GI50: > 100 µM (inactive)
RPMI-8226
  GI50: > 100 µM (inactive)
RXF 393
  GI50: 20.6 µM (inactive)
RXF 631
  GI50: > 100 µM (inactive)
SF-268
  GI50: > 100 µM (inactive)
SF-539
  GI50: > 100 µM (inactive)
SK-MEL-28
  GI50: > 100 µM (inactive)
SK-MEL-2
  GI50: > 100 µM (inactive)
SK-OV-3
  GI50: > 100 µM (inactive)
SN12C
  GI50: > 100 µM (inactive)
SNB-19
  GI50: > 100 µM (inactive)
SNB-75
  GI50: > 100 µM (inactive)
U-251
  GI50: > 100 µM (inactive)
UACC-257
  GI50: > 100 µM (inactive)
UACC-62
  GI50: > 100 µM (inactive)
UO-31
  GI50: > 100 µM (inactive)
XF498
  GI50: 99.3 µM (inactive)

## O=C1NC2CCC(C2)C1c1ccccc1 (stereo unspecified)
786-0
  GI50: > 100 µM (inactive)
A498
  GI50: > 100 µM (inactive)
A549
  GI50: > 100 µM (inactive)
ACHN
  GI50: > 100 µM (inactive)
CCRF-CEM
  GI50: > 100 µM (inactive)
COLO 205
  GI50: > 100 µM (inactive)
DLD-1
  GI50: > 100 µM (inactive)
DMS-114
  GI50: > 100 µM (inactive)
DMS-273
  GI50: > 100 µM (inactive)
EKVX
  GI50: > 100 µM (inactive)
HCC 2998
  GI50: > 100 µM (inactive)
HL-60
  GI50: > 100 µM (inactive)
HOP-18
  GI50: > 100 µM (inactive)
HT-29
  GI50: > 100 µM (inactive)
IGROV-1
  GI50: > 100 µM (inactive)
K562
  GI50: > 100 µM (inactive)
KM12
  GI50: > 100 µM (inactive)
LOX IMVI
  GI50: > 100 µM (inactive)
LXFL 529
  GI50: > 100 µM (inactive)
M14
  GI50: > 100 µM (inactive)
M19-MEL
  GI50: > 100 µM (inactive)
MOLT-4
  GI50: > 100 µM (inactive)
Malme-3M
  GI50: > 100 µM (inactive)
NCI-H226
  GI50: > 100 µM (inactive)
NCI-H23
  GI50: > 100 µM (inactive)
NCI-H460
  GI50: > 100 µM (inactive)
OVCAR-3
  GI50: > 100 µM (inactive)
OVCAR-4
  GI50: > 100 µM (inactive)
OVCAR-5
  GI50: > 100 µM (inactive)
OVCAR-8
  GI50: > 100 µM (inactive)
RPMI-8226
  GI50: > 100 µM (inactive)
RXF 393
  GI50: > 100 µM (inactive)
RXF 631
  GI50: > 100 µM (inactive)
SF-268
  GI50: > 100 µM (inactive)
SF-295
  GI50: > 100 µM (inactive)
SF-539
  GI50: > 100 µM (inactive)
SK-MEL-28
  GI50: > 100 µM (inactive)
SK-MEL-5
  GI50: > 100 µM (inactive)
SK-OV-3
  GI50: > 100 µM (inactive)
SN12C
  GI50: > 100 µM (inactive)
SNB-19
  GI50: > 100 µM (inactive)
SNB-75
  GI50: > 100 µM (inactive)
SNB-78
  GI50: > 100 µM (inactive)
SR
  GI50: > 100 µM (inactive)
SW-620
  GI50: > 100 µM (inactive)
TK-10
  GI50: > 100 µM (inactive)
U-251
  GI50: > 100 µM (inactive)
UACC-62
  GI50: > 100 µM (inactive)
UO-31
  GI50: > 100 µM (inactive)

## O=C1c2ccccc2C(=O)c2nc3c(O)cccc3cc21
786-0
  GI50: 6.38 µM (inactive)
A498
  GI50: 25.9 µM (inactive)
A549
  GI50: 17.8 µM (inactive)
ACHN
  GI50: 27 µM (inactive)
CAKI-1
  GI50: 93.1 µM (inactive)
COLO 205
  GI50: 23.8 µM (inactive)
DLD-1
  GI50: 9.75 µM (inactive)
DMS-114
  GI50: 3.81 µM (inactive)
DMS-273
  GI50: 6.61 µM (inactive)
EKVX
  GI50: 14.5 µM (inactive)
HCC 2998
  GI50: 35.9 µM (inactive)
HCT-116
  GI50: 4.12 µM (inactive)
HCT-15
  GI50: 13 µM
HOP-18
  GI50: 24.9 µM (inactive)
HOP-62
  GI50: 38.9 µM (inactive)
HT-29
  GI50: 21 µM (inactive)
IGROV-1
  GI50: 57.8 µM (inactive)
K562
  GI50: 5.83 µM (inactive)
KM-20L2
  GI50: 26.7 µM (inactive)
KM12
  GI50: 47.6 µM (inactive)
LOX IMVI
  GI50: 13.9 µM (inactive)
LXFL 529
  GI50: 4.57 µM (inactive)
M14
  GI50: 6.34 µM (inactive)
M19-MEL
  GI50: 2.12 µM (inactive)
MOLT-4
  GI50: 3.38 µM (inactive)
Malme-3M
  GI50: 53.5 µM (inactive)
NCI-H226
  GI50: 74.5 µM (inactive)
NCI-H23
  GI50: > 100 µM (inactive)
NCI-H460
  GI50: 9.08 µM (inactive)
NCI-H522
  GI50: 4.97 µM (inactive)
OVCAR-3
  GI50: 1.87 µM (inactive)
OVCAR-4
  GI50: 12.9 µM (inactive)
OVCAR-5
  GI50: 89.7 µM (inactive)
OVCAR-8
  GI50: 26 µM (inactive)
RPMI-8226
  GI50: 6.47 µM (inactive)
RXF 393
  GI50: > 100 µM (inactive)
RXF 631
  GI50: 36.2 µM (inactive)
SF-268
  GI50: 7.96 µM (inactive)
SF-295
  GI50: 12.7 µM (inactive)
SF-539
  GI50: 28.4 µM (inactive)
SK-MEL-28
  GI50: > 100 µM (inactive)
SK-MEL-2
  GI50: > 100 µM (inactive)
SK-MEL-5
  GI50: 3.6 µM (inactive)
SN12C
  GI50: 25.4 µM (inactive)
SNB-19
  GI50: 14.7 µM (inactive)
SNB-75
  GI50: 68.1 µM (inactive)
SR
  GI50: 3.18 µM (inactive)
SW-620
  GI50: 3.57 µM (inactive)
TK-10
  GI50: 74.5 µM (inactive)
U-251
  GI50: 20.8 µM (inactive)
UACC-257
  GI50: 10.3 µM (inactive)
UACC-62
  GI50: 37.3 µM (inactive)
UO-31
  GI50: 14.5 µM (inactive)
